Measured values: PMC10149367, “The ferroptosis inducing compounds RSL3 and ML162 are not direct inhibitors of GPX4 but of TXNRD1” (Redox Biology, 2023)
pIC50: −log10 of the molar value.

Assays:
A549 cells [1] = experiment: Cytotoxicity assay, A549 cells; format: cell-based, human
Protocol: Cell culture—H1975 and A549 cells were cultured in RPMI-1640 medium (HyClone) with Earle's salts supplemented and penicillin/streptomycin (100 μg/ml), while HT1080 cells were cultured in MEM medium for Fig. 2 experiments. For all other cellular experiments, A549 cells were cultured in DMEM 4.5 g/L glucose medium (Gibco), and H1975 cells in RPMI-1640 ATCC Modification (Gibco). Cell cultures were maintained at 37 °C in 5% CO2 in a medium containing 10% fetal bovine serum (FBS) (GE Healthcare, A15-102 for Fig. 2 experiments and Sigma, F7524 for all others). Experiments were performed with or without supplementation with 100 nM sodium selenite as described.
Cytotoxicity assays— Cells were seeded in a 96-well plate at the density of 3 × 10^3 per well and allowed to adhere overnight. After which, cells were treated with various concentrations of compound for the indicated times, whereupon cell viability was determined using Cell Quanti-Blue™ Cell Viability Assay Kits (Nordic Diagnostica, CQBL-10K). Briefly, QUANTI-Blue Reagent (10 μL) was added to each well, incubated at 37 °C in 5% CO2 for 3 h, and then the plates were measured at 540nm/600 nm (Ex/Em) using the Tecan Microplate Reader (Morrisville NC, USA).

GPX4 [2] = tested on: GPX4; set-up: method as in PMID 34788728; conditions: cited from earlier work
[3] = tested on: malondialdehyde (MDA) and Ptgs2 mRNA levels; set-up: method as in PMID 32732975; conditions: C57BL/6 mice; rescued with Fer-1; cited from earlier work
TXNRD1 [4] = target: T1, TXNRD1 (Homo sapiens, UniProt Q16881); experiment: Cellular TXNRD1 assay with RX1 probe in A549 cells; format: cell-based; conditions: A549, 4 h incubation; RSL3 and ML162 at 1 μM or higher
T1 construct: RX1 probe that specifically reports upon TXNRD1 enzymatic activity in live cells; endogenous in cells; host or cells: A549
T1 sequence (Q16881 151-649 limits assumed): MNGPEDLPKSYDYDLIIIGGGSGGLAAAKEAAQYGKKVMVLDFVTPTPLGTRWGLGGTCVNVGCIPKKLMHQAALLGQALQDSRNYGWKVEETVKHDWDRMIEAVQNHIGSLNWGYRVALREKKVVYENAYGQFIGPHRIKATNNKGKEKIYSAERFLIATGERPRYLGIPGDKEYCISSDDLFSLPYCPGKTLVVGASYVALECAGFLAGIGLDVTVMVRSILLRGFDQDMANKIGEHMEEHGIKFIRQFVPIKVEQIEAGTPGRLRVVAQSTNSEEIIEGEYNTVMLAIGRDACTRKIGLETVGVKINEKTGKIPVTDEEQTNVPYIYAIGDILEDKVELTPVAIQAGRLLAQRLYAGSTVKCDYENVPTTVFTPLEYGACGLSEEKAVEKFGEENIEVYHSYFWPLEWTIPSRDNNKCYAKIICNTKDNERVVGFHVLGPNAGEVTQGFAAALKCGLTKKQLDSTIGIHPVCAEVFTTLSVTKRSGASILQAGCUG
Protocol: Cellular TXNRD1 assay—20,000 or 10,000 A549 cells (for 4 h or 12 h and 24 h compound incubation respectively) were seeded in 96-well plates (microplates, 96 well, F-bottom, black, clear bottom, ViewPlateTM-96 F TC, PerkinElmer), in a total volume of 100 μL full DMEM (supplemented with 10% FBS and 100 nM Na2SeO3). […] The cells were subsequently incubated for the respective mentioned time, washed once with full DMEM and fresh, full DMEM, containing 75 μM RX1 and 0.75% DMSO, was added and the first fluorescent measurement was conducted immediately (timepoint = 0) using a Tecan Infinite M200 plate reader (ex/em 355/520). To follow the kinetic activation of RX1, a fluorescent measurement was done every hour for 6 h. Between measurements, cells were stored at 37 °C and 5% CO2. As a control, cells treated with compounds, but not with RX1, just the respective DMSO content, were used for background fluorescent. To determine how the cells were viable throughout the RX1 assay, the control cells were used for a viability measurement, using CellTiter-Glo® Luminescent Cell Viability Assay, after the final fluorescent measurement. For final data analysis, raw data was processed using Microsoft Excel and GraphPad Prism. In brief, the slope of the activated RX1 fluorescence increase was in each case calculated and normalized, using the viability measurement of the control cells.

[5] = set-up: method as in PMID 29444979; conditions: given at high doses to mice; cited from earlier work
TXNRD1 [6] = target: T2, TXNRD1 (Homo sapiens, UniProt Q16881); experiment: TXNRD1 activity assay, pure enzyme (Fig. 1A); format: biochemical
T2 construct: made in house
T2 sequence (Q16881 1-499 isoform Q16881-5): T1 sequence (Q16881 151-649 limits assumed)
Protocol: Recombinant human proteins—Recombinant human selenoprotein GPX and TXNRD isoenzymes as well as recombinant human GR were cloned, expressed, and purified as described previously [[26], [27], [28]].
TXNRD1 selenite and DTNB assays were run as previously described [[26], [27], [28]]. Dose-response curves and IC50s were generated using Excel and GraphPad Prism. Briefly, initial slopes of NADPH consumption were normalized to DMSO controls and IC50s were calculated using log(inhibitor) vs. response—Variable slope (four parameters).

GPX4 [7] = target: T3, GPX4 (Homo sapiens, UniProt P36969); experiment: GPX4 immunoblot of treated A549 cells; format: cell-based; conditions: A549, 3 μM, 24 h
T3 construct: We thus performed immunoblot analyses for GPX4 in A549 cells; endogenous in cells; host or cells: A549
T3 sequence (P36969 1-197): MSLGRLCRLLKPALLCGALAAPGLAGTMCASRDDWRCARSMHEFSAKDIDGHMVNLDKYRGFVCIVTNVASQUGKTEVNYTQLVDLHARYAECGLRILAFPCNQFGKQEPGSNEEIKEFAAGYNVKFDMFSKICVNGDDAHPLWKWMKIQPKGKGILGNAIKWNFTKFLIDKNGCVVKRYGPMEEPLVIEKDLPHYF
Protocol: Western blots—A549 and H1975 cells cultured for at least 72 h in the presence of 100 nM Na2SeO3 (Sigma) were seeded in 90 mm dishes (VWR) at 1 × 10^6 cells per dish for 18 h prior to main treatments. Four hours after seeding dishes, cells were pretreated with 2 μM Fer-1 for 14 h prior to adding RSL3, when indicated. After 14 h, main treatments with TRi-1, TRi-2, RSL3, ML162, ML210 or 0.03% v/v DMSO in doses indicated in each figure were added for 6 or 24 h. Total DMSO content was 0.05%. Cells were then scraped, washed in PBS, and suspended in 150–200 μL lysis buffer containing 50 mM Tris-HCl (pH 7.5), 2 mM EDTA, 0.15 M NaCl, 1% Triton X-100, and cOmplete protease inhibitor cocktail (Roche). Supernatants were collected after 30 s of sonication, and 30 min centrifugation at 17000×g, and protein concentration was measured using Pierce bicinchoninic acid (BCA) protein assay kit (Thermo Fischer Scientific). […] Chemiluminescent signal was detected using anti-rabbit and anti-mouse HRP-IgG secondary antibodies (Southern Biotech, 4030–05, LOT A2718-MM00 and 1030–05, LOT L3919-XE81B respectively) and ECL detection reagent (Cytiva Amersham). Protein quantification based on band densitometry was performed in Quantity One and Image Lab (BioRad).

TXNRD1 [8] = target: T2, TXNRD1; experiment: nano differential scanning fluorimetry, TXNRD1; format: binding; conditions: 100 μM compound
Protocol: Nano differential scanning fluorimetry—Real-time monitoring of fluorescence emission at 330 nm and 350 nm (excitation wavelength: 280 nm) and backscattering absorbance of GPX4 and TXNRD1 samples in the presence of compound was performed using a NanoTemper Prometheus NT.48 instrument. […] Standard capillaries were used, and temperature was increased from 25 to 95 °C with a ramp rate of 4.0 °C/min. Three biological replicates were carried out for each condition, and their means and standard deviations are depicted.

A549 cells [9] = experiment: A549 viability in cellular TXNRD1 (RX1) experiments; conditions: A549, 4 h, Extended Data Fig. 3A
Protocol: Cellular TXNRD1 assay—20,000 or 10,000 A549 cells (for 4 h or 12 h and 24 h compound incubation respectively) were seeded in 96-well plates (microplates, 96 well, F-bottom, black, clear bottom, ViewPlateTM-96 F TC, PerkinElmer), in a total volume of 100 μL full DMEM (supplemented with 10% FBS and 100 nM Na2SeO3). The cells were incubated for 16 h at 37 °C and 5% CO2, followed by media change and addition of indicated compounds at respective concentrations (0.1 μM–20 μM), including 0.6% DMSO. The cells were subsequently incubated for the respective mentioned time, washed once with full DMEM and fresh, full DMEM, containing 75 μM RX1 and 0.75% DMSO, was added and the first fluorescent measurement was conducted immediately (timepoint = 0) using a Tecan Infinite M200 plate reader (ex/em 355/520). To follow the kinetic activation of RX1, a fluorescent measurement was done every hour for 6 h. Between measurements, cells were stored at 37 °C and 5% CO2. As a control, cells treated with compounds, but not with RX1, just the respective DMSO content, were used for background fluorescent. To determine how the cells were viable throughout the RX1 assay, the control cells were used for a viability measurement, using CellTiter-Glo® Luminescent Cell Viability Assay, after the final fluorescent measurement. For final data analysis, raw data was processed using Microsoft Excel and GraphPad Prism. In brief, the slope of the activated RX1 fluorescence increase was in each case calculated and normalized, using the viability measurement of the control cells.
Extended Data Figure 3: A549 cytotoxicity in cellular TXNRD1 experiments following final
A) Cell viability following 4-hour incubation with
compounds; B) Viability following 12-hour incubation with compounds; C) Viability
following 24 -hour incubation with compounds. The cell viability in was in each case measured
using the Cell Quanti-BlueTM Cell Viability Assay Kit and the data are presented as mean ±
s.d. of n = 3 biological replicates, each containing n = 3 technical replicates.

Q: With `COc1ccc([N+](=O)[O-])c(S(=O)(=O)c2ccc(Cl)cc2)n1` [TRi-1] as the molecule, how does the pIC50 (A549 cells [1]; 24 h, media not supplemented with selenium) read?
A: ~4.70

Q: What about the “Effect of ferrostatin-1 or MitoTEMPO co-treatment on cytotoxicity” value (A549 cells [1]; A549, 24 h, no selenium supplementation) of the same molecule?
A: co-treatment with neither ferrostatin-1 nor MitoTEMPO had any effect

Q: And the Cell viability (A549 cells [1]; A549, 24 h, under all tested conditions (with/without Se, blockers))?
A: about 40%

Q: And the “Difference in response profiles between cell lines” value (A549 cells [1]; A549, H1975 and HT1080, 24 h)?
A: no stark difference in response profiles

Q: What about the “Effect on GPX4 thermostability” value (GPX4 [2]) of the same molecule?
A: no major effect

Q: What about the “MDA and Ptgs2 levels” value [3] of the same molecule?
A: increase MDA and Ptgs2 levels

Q: And the “Effect on cellular TXNRD1 activity (RX1) at 4 h” value (TXNRD1 [4])?
A: effectively inhibit cellular TXNRD1 activity

Q: And the “Antitumoral effect in mice” value [5]?
A: antitumoral properties

Q: And the Toxicity to mice [5]?
A: lack overt toxicity

Q: What about the “Specificity among GPX1, GPX4, GR and TXNRD1” value (TXNRD1 [6]; pure enzyme systems, Fig. 1A lower panels) of the same molecule?
A: specific inhibitors of TXNRD1

Q: And the pIC50 (TXNRD1 [6]; recombinant TXNRD1, Fig. 1A assay conditions, read-out: IC50 TXNRD1 inhibition)?
A: ~6.30

Q: What about the “GPX4 expression levels compared to DMSO controls (immunoblot)” value (GPX4 [7]) of the same molecule?
A: no obvious changes in its expression levels

Q: What about the “Thermal stabilization of TXNRD1” value (TXNRD1 [8]) of the same molecule?
A: displaying thermal stabilization of the enzyme

Q: And the “Effect on cell viability at 4 h” value (A549 cells [9])?
A: no overt effects on viability
